Measurements as given in patent US5141627A, “Chelators whose affinity for calcium ion is increased by illumination” (The Regents of the University of California, priority 1989, dated 1992).
“Also recorded” adds a separate entry of the source. Read-outs that look alike come from different tables or passages of the source.

Tests used:
[1] = system: REF52 fibroblast cell; assay: Intracellular free Ca2+ in REF52 fibroblasts on vasopressin stimulation and UV photolysis (fluo-3); type: cell-based, Fisher rat; conditions: for effect of UV photolysis of intracellular chelator on [Ca2+]i (in words): 1 s UV after 50 nM [arg8]-vasopressin
From the text: The tetraacetoxymethyl esters of diazo-2 and diazo-3 were synthesized. The acetoxymethyl (AM) groups mask the negative charges on the carboxylate functions, so the AM ester of diazo-2 and diazo-3 can easily diffuse across the cell membrane, which is largely impermeable to ions. Once inside the cell, non-specific esterases in the cell hydrolytically cleave the AM esters and restore diazo-2 and diazo-3 to their tetracarboxylate forms, which being polyanions, are trapped within the cell. […] Prior to the start of data acquisition (t=0), the REF52 fibroblast cell was loaded with diazo-2 and fluo-3. […] Its fluorescence quantum yield is enhanced about 40-fold by Ca^2+ binding, which occurs with a Kd of 400 nM.
Prior to the start of data acquisition, the REF52 fibroblast cell was loaded with fluo-3 and diazo-2 by incubation for 30 min at 25° C. DME medium containing 1 μM diazo-2/AM and 10 μM fluo-3/AM. Acquisition of fluo-3 fluorescence intensity images was begun at time 0. The fluorescence intensity data was converted to intracellular Ca^2+ concentrations using a calibration procedure previously described. The event markers correspond to 1) stimulating the cell with 50 nM [arg^8 ]-vasopressin,and 2) flashing the cell for 1 s with UV light.
The experimental conditions were the same as in (A) except that the cell wa loaded with fluo-3 and diazo-3 (instead of diazo-2) by incubation for 90 min at 25° C. in DME medium containing 10 μm fluo-3/AM and […] diazo-3/AM. The event markers correspond to 1) stimulating the cell with 50 nM [arg^8 ]-vasopressin, and 2) flashing the cell for 1 s of UV light.
For preliminary biological tests, Fisher rat embryo fibroblast of the REF52 cell line were cultured as described by J. P. Y. Kao, et al. (1989).
For testing diazo-2, REF52 cells were incubated for 30 min at 25° C. in Dulbecco's modified Eagle's medium, buffered at pH 7.4 with 20 mM HEPES and containing 1 μM diazo-2/AM and 10 μM fluo-3/AM. For control experiments using diazo-3, the cells were incubated for 90 min at 25° C. in DMEM, buffered to pH 7.4 with 20 mM HEPES and containing 1 μM diazo-3/AM and […] fluo-3/AM. After loading, the cells were gently washed, transferred into Hanks' Balanced Salt Solution containing 0.2 mM sulfinpyrazone to inhibit non-specific organic anion transport (see Tsien, 1989), and mounted on a 25° C. microscope stage for experimentation.
Flash photolysis of trapped cellular diazo-2 and the concomitant monitoring of intracellular free Ca^2+ concentration with fluo-3, a fluorescent Ca^2+ indicator, were performed using methodology and instrumentation described in A. Minta, et al (1989) and J. P. Y. Kao, et al. (1989). Briefly, output form a Xe arc lamp was passed through a monochromator to yield the 490 nm light used to probe the fluo-3 trapped intracellularly. The fluo-3 fluorescence images of cells were recorded using a SIT TV camera. Images were stored on a high-resolution monochrome laser disc recorder (Panasonic TQ-2028) for delayed processing. Photolyses were performed by briefly moving a chopper mirror to send broad-band UV from an XBO 75 W xenon arc lamp and UG-2 filter into the microscope instead of 490 nm fluo-3 excitation. The microscope objective (Nikon UV-CF, 40X) was chosen for its high UV transmission and numerical aperture (1.3). […] The same computer was used to analyze the fluorescence images acquired during the experiment.

[2] = Ca2+ affinity by UV spectra during titration of EGTA or HEEDTA buffers; type: binding
Protocol: (§1) The titration was done at 22° C. with 10 mL of 100 mM KCl, 10 mM K-MOPS, 10 mM K2 H.HEEDTA, and 14 […] diazo-2 as starting materials, adjusting the pH to 7.24, recording the spectrum, and then discarding 1.0 mL of this solution and replacing with 1.0 mL of 100 mM KCl, 10 mM K.MOPS, 10 mM KCa.HEEDTA, 14 μM diazo-2, readjusting the pH to 7.24, and recording the spectra, which was then in 9 mM K2H.HEEDTA. Subsequent iterations to reach n mM KCa.HEEDTA, (10-n) mM HEEDTA, n=2-10, were done by discarding 10.0/(11-n) mL and replacing with equal volumes of the 10mM KCa.HEEDTA, 14 μM diazo-2 stock. After n=10 had been reached to give free Ca^2+ between 10^-5 and 10^-4 M, addition of 1 mM CaCl2 had no further effect on the spectrum. For clarity only six spectra are including in the figure, n=0, 2, 4, 6, 8, and 10. Each spectrum is labeled with the calculated free [Ca^2+ ] imposed by the HEEDTA buffer, assuming a log effective stability constant of 5.55 at pH 7.24.
(§2) The phenylacetate was produced by irradiating a 30 μM solution of diazo-2 in 100 mM KCl, 10 mM Tris.HCl, 10 mM K2 H.HEEDTA, pH 8.40, with Spectroline lamp at 365 nm to completion. The titration was then performed as in A but the pH was maintained at 8.40, at which the calculated log effective stability is constant for HEEDTA was 6.60.
Ca^2+ -binding constants for chelators before and after photolysis were determined by monitoring UV spectra during titration of EGTA or HEEDTA buffers to varying free Ca^2+ levels.
Either the ratio of, for example, [Ca.EGTA] to free [EGTA] was adjusted at a constant pH, or the pH was varied while [Ca.EGTA]=[EGTA]. These two approaches gave equivalent answers for pH>7 whenever directly tested, because of the pH insensitivity of BAPTA-like ligands (see FIG. 1 legend for more details). The apparent dissociation constants of Ca.EGTA and Ca.HEEDTA were calculated as described by R. Y. Tsien (1980); see also R. Y. Tsien, et al. (1986), S. R. Adams, et al. (1980), Grynkiewicz, et al., (1985), and Jackson, et al. (1987).

[3] = Absorbance spectra of free and Ca2+-bound chelators; type: physicochemical
Protocol: as §1, §2
Proton magnetic resonance spectra (^1 H NMR) were recorded on a Varian EM-390 90-MHz spectrometer in CDCl3 unless otherwise noted, and the chemical shifts are given in δ values relative to tetramethylsilane. Ultraviolet (UV) absorbance spectra were recorded on a Cary 210 or a Perkin-Elmer Lambda Array 3840 spectrophotometer at 20°±2° C. Melting points are in Centigrade and are uncorrected. Elemental analyses were performed by the Microanalytical Laboratory in the Department of Chemistry, University of California, Berkeley, Calif.

[4] = Ca2+ affinity by UV spectra during titration of EGTA or HEEDTA buffers; type: binding; conditions: after photolysis; 0.25M ionic strength (0.2M KCl, 0.05M NaCl), 18° C.

SMILES | effect of UV photolysis of intracellular chelator on [Ca2+]i (in words) [1] | Kd ([2]; negligible affinity, pre- and post-photolysis, read-out: Kd (Ca2+)) [µM] | εmax, free ([3]; free (zero Ca2+), at λmax) | λmax, free ([3]; free (zero Ca2+), dominant peak at longest wavelength) [nm] | Kd [4] [µM] | [Ca2+]i immediately after photolysis ([1]; after 1 s UV, cell stimulated with 50 nM [arg8]-vasopressin, loaded with diazo-2/AM) | Kd ([2]; after photolysis, 0.1-0.15M ionic strength, 20-23° C., read-out: Kd (Ca2+), after photolysis) [µM] | Kd ([2]; before photolysis, 0.1-0.15M ionic strength, pH 7.0-7.4, 20-23° C., read-out: Kd (Ca2+), before photolysis) [µM] | εmax, +Ca2+ ([3]; +Ca2+, at λmax) | λmax, +Ca2+ ([3]; +Ca2+, dominant peak at longest wavelength) [nm] | shift of absorbance to shorter wavelengths on binding Ca2+ ([3]; on binding Ca2+) [nm]
COc1cc(C(=O)C=[N+]=[N-])ccc1N(CC(=O)O)CC(=O)O [diazo-3, 2-methoxy-4-(diazoacetyl)aniline-N, N-diacetic acid] | did not have any effect on the intracellular Ca^2+ concentration; also recorded: no detectable effect on Ca^2+ hemeostasis | > 1000 | 22.8 10^-3, M^-1 cm^-1 | 374 |  |  |  |  |  |  | 
Cc1ccc(N(CC(=O)O)CC(=O)O)c(OCCOc2cc(C(=O)C=[N+]=[N-])ccc2N(CC(=O)O)CC(=O)O)c1 [diazo-2, 1-(2-bis(carboxymethyl)amino-5-methyl) phenoxy-2-(2-bis(carboxymethyl)amino-5-(diazoacetyl)phenoxy) ethane] | dropped precipitously |  | 22.2 10^-3, M^-1 cm^-1 |  | 0.15 | about 50 nM | 0.073 | 2.2 | 20.2 10^-3, M^-1 cm^-1 | 320 | 50
